Tested on: 454973-116-R2-J3-PDC complex spheroid viability
Assay: Anticancer human tumor 454973-116-R2-J3-PDC patient-derived pancreatic carcinoma cell line growth inhibition [POLQ]
Settings: for IC50: curve of first compound; for viability, T/C: stronger effect = lower value
Experimental: Multicellular complex tumor spheroid response to Polymerase (POL) inhibitors (novobiocin, ART-558, RP6685) in combination with a variety of drugs and investigational agents in selected tumor cell lines
The POL inhibitors (novobiocin, ART-558, and RP6685) were evaluated both individually and in combination with standard of care and investigational anticancer small molecules within a complex spheroid model of solid tumors. . Complex spheroids include a stromal component modeled by human endothelial cells (HUVEC) and fibroblasts modeled by human mesenchymal stem cells (MSCs). The concentration ranges selected for each drug and investigational agent were based upon clinically achievable concentrations if the clinical Cmax of the agent was known.
Compounds. The drugs and investigational agents: novobiocin (NSC847541), ART-558 (NSC835418), RP-6685 (NSC848927), peposertib (NSC802822), ceralasertib (NSC780249), elimusertib (NSC800525), camonsertib (NSC841442), AZD-1390 (NSC803789), olaparib (NSC753686), talazoparib (NSC767125), rucaparib (NSC756644), sotorasib (NSC818433), MRTX-1133 (NSC836407), SN-38 (NSC673596), topotecan (NSC609699), epotoside (NSC141540), doxorubicin (NSC123127), gemcitabine (NSC613327), 5-fluorouracil (NSC19893), paclitaxel (NSC125973), vemurafenib (NSC761431), MSA-2 (NSC828583), SN-011 (NSC837082), adavosertib (NSC754352), prexasertib (NSC758257), carboplatin (NSC241240) and oxaliplatin (NSC266046), were obtained from the National Cancer Institute (NCI) Developmental Therapeutics Program Chemical Repository (21). The FDA-approved anticancer drug set is available from the Developmental Therapeutics Program at https://dtp.cancer.gov/organization/dscb/obtaining/. […] The stock solutions were prepared in dimethyl sulfoxide (DMSO, Sigma-Aldrich, St. Louis, MO, cat. D2650), except for the platinum compounds which were prepared in saline (Quality Biological, Gaithersburg, MD, cat. 114-055-101), at 800-fold the tested concentration and stored at -70 degrees C prior to their use. All drugs and investigational agents were tested over a range starting from a high concentration at or near the clinical Cmax and decreasing in half-log increments. If the clinical Cmax for an agent had not been determined, the highest concentration tested was 10 microM, except for SN-38, which was tested at a high concentration of 1 microM.
Cell Culture. All cells were maintained in an incubator at 37 degrees C and 5% CO2 with 95% humidity. The PDC lines were cultured according to standard operating procedures established by the NCI PDMR (https://pdmr.cancer.gov). Table 3 of the manuscript, lists the cell lines along with the number of the three cell types plated to form the mct-spheroids and media for tumor cell growth. After thawing, all PDC lines, except 997537-175-T-J1-PDC and 415267-285-R-J2-PDC, were cultured in Matrigel-coated flasks prepared with a working solution of 1X Ham's F-12 nutrient mix, without supplementation (Thermo Fisher Scientific, cat. 11765054), 100 U/mL penicillin-streptomycin (Thermo Fisher Scientific, cat. 15140122), and 2.5% Matrigel (Corning Inc., Corning, NY, cat. 354248) for the first three passages. The two PDC lines 997537-175-T-J1-PDC and 415267-285-R-J2-PDC were cultured on uncoated flasks. The 857933-349-R-J2-PDC line was cultured in 6C/Colon 1B media containing advanced DMEM/F-12 (Thermo Fisher Scientific, cat. 12634028), 10 mM HEPES (Thermo Fisher Scientific, cat. 15630080), 1X GlutaMAX supplement (Thermo Fisher Scientific, cat. 35050061), 0.1 mg/mL primocin (InvivoGen, San Diego, CA, cat. ant-pm-2), 10% defined fetal bovine serum, heat inactivated (HyClone Laboratories Inc., Logan, UT, cat. SH30070.03HI), 50% L-WRN conditioned media (ATCC, cat. CRL-3276), 1.25 mM N-Acetyl-L-cysteine (Sigma-Aldrich, cat. A9165), 10 mM nicotinamide (Sigma-Aldrich, cat. N0636), 1X B-27 supplement (Thermo Fisher Scientific, cat. 17504044), 1X N-2 supplement (Thermo Fisher Scientific, cat. […]

[1] = second compound 0.0316 µM, first compound 0.0316 µM
[2] = second compound 0.0316 µM, first compound 0.1 µM
[3] = second compound 0.1 µM, first compound 0.0316 µM
[4] = second compound 0.1 µM, first compound 0.1 µM
[5] = second compound 0.316 µM, first compound 0.0316 µM
[6] = second compound 0.316 µM, first compound 0.1 µM
[7] = second compound 1 µM, first compound 0.0316 µM
[8] = second compound 1 µM, first compound 0.1 µM
[9] = second compound 3.16 µM, first compound 0.0316 µM
[10] = second compound 3.16 µM, first compound 0.1 µM
[11] = second compound 10 µM, first compound 0.0316 µM
[12] = second compound 10 µM, first compound 0.1 µM
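Also: spheroids exposed to drugs for seven days before measurement.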
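For viability, T/C in this document: percent viability relative to DMSO vehicle control wells taken as 100%.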

C=CC(=O)N1CCN(c2nc(=O)n(-c3c(C)ccnc3C(C)C)c3nc(-c4c(O)cccc4F)c(F)cc23)C(C)C1 (centres undefined) + Cc1cccc(N(C)C(=O)C2C(O)CCN2c2nc(C)cc(C(F)(F)F)c2C#N)c1
IC50 (second compound 0.0316 µM): > 10 µM
IC50 (second compound 0.1 µM): > 10 µM
IC50 (second compound 0.316 µM): > 10 µM
IC50 (second compound 1 µM): > 10 µM
IC50 (second compound 3.16 µM): > 10 µM
IC50 (second compound 10 µM): > 10 µM
viability, T/C [1]: 100%
viability, T/C [2]: 99.5%
viability, T/C (second compound 0.0316 µM, first compound 0.316 µM): 98.7%
viability, T/C (second compound 0.0316 µM, first compound 1 µM): 115%
viability, T/C (second compound 0.0316 µM, first compound 3.16 µM): 106%
viability, T/C (second compound 0.0316 µM, first compound 10 µM): 109%
viability, T/C [3]: 96.9%
viability, T/C [4]: 101%
viability, T/C (second compound 0.1 µM, first compound 0.316 µM): 107%
viability, T/C (second compound 0.1 µM, first compound 1 µM): 107%
viability, T/C (second compound 0.1 µM, first compound 3.16 µM): 110%
viability, T/C (second compound 0.1 µM, first compound 10 µM): 115%
viability, T/C [5]: 101%
viability, T/C [6]: 107%
viability, T/C (second compound 0.316 µM, first compound 0.316 µM): 108%
viability, T/C (second compound 0.316 µM, first compound 1 µM): 106%
viability, T/C (second compound 0.316 µM, first compound 3.16 µM): 108%
viability, T/C (second compound 0.316 µM, first compound 10 µM): 111%
viability, T/C [7]: 108%
viability, T/C [8]: 102%
viability, T/C (second compound 1 µM, first compound 0.316 µM): 115%
viability, T/C (second compound 1 µM, first compound 1 µM): 105%
viability, T/C (second compound 1 µM, first compound 3.16 µM): 110%
viability, T/C (second compound 1 µM, first compound 10 µM): 110%
viability, T/C [9]: 107%
viability, T/C [10]: 111%
viability, T/C (second compound 3.16 µM, first compound 0.316 µM): 103%
viability, T/C (second compound 3.16 µM, first compound 1 µM): 118%
viability, T/C (second compound 3.16 µM, first compound 3.16 µM): 112%
viability, T/C (second compound 3.16 µM, first compound 10 µM): 108%
viability, T/C [11]: 115%
viability, T/C [12]: 102%
viability, T/C (second compound 10 µM, first compound 0.316 µM): 109%
viability, T/C (second compound 10 µM, first compound 1 µM): 113%
viability, T/C (second compound 10 µM, first compound 3.16 µM): 111%
viability, T/C (second compound 10 µM, first compound 10 µM): 109%

Cn1ncnc1[C@H]1c2n[nH]c(=O)c3cc(F)cc(c23)N[C@@H]1c1ccc(F)cc1 + Cc1cccc(N(C)C(=O)C2C(O)CCN2c2nc(C)cc(C(F)(F)F)c2C#N)c1
IC50 (second compound 0.0316 µM): > 0.1 µM
IC50 (second compound 0.1 µM): > 0.1 µM
IC50 (second compound 0.316 µM): > 0.1 µM
IC50 (second compound 1 µM): > 0.1 µM
IC50 (second compound 3.16 µM): > 0.1 µM
IC50 (second compound 10 µM): > 0.1 µM
viability, T/C (second compound 0.0316 µM, first compound 0.000316 µM): 109%
viability, T/C (second compound 0.0316 µM, first compound 0.001 µM): 97%
viability, T/C (second compound 0.0316 µM, first compound 0.00316 µM): 91.8%
viability, T/C (second compound 0.0316 µM, first compound 0.01 µM): 96.1%
viability, T/C [1]: 108%
viability, T/C [2]: 89.6%
viability, T/C (second compound 0.1 µM, first compound 0.000316 µM): 106%
viability, T/C (second compound 0.1 µM, first compound 0.001 µM): 100%
viability, T/C (second compound 0.1 µM, first compound 0.00316 µM): 95.6%
viability, T/C (second compound 0.1 µM, first compound 0.01 µM): 97.2%
viability, T/C [3]: 94.3%
viability, T/C [4]: 90.1%
viability, T/C (second compound 0.316 µM, first compound 0.000316 µM): 102%
viability, T/C (second compound 0.316 µM, first compound 0.001 µM): 104%
viability, T/C (second compound 0.316 µM, first compound 0.00316 µM): 98.5%
viability, T/C (second compound 0.316 µM, first compound 0.01 µM): 97.6%
viability, T/C [5]: 98.5%
viability, T/C [6]: 85.2%
viability, T/C (second compound 1 µM, first compound 0.000316 µM): 110%
viability, T/C (second compound 1 µM, first compound 0.001 µM): 102%
viability, T/C (second compound 1 µM, first compound 0.00316 µM): 103%
viability, T/C (second compound 1 µM, first compound 0.01 µM): 105%
viability, T/C [7]: 91.7%
viability, T/C [8]: 91.4%
viability, T/C (second compound 3.16 µM, first compound 0.000316 µM): 105%
viability, T/C (second compound 3.16 µM, first compound 0.001 µM): 119%
viability, T/C (second compound 3.16 µM, first compound 0.00316 µM): 103%
viability, T/C (second compound 3.16 µM, first compound 0.01 µM): 108%
viability, T/C [9]: 97.2%
viability, T/C [10]: 85.6%
viability, T/C (second compound 10 µM, first compound 0.000316 µM): 107%
viability, T/C (second compound 10 µM, first compound 0.001 µM): 96%
viability, T/C (second compound 10 µM, first compound 0.00316 µM): 97.5%
viability, T/C (second compound 10 µM, first compound 0.01 µM): 91.8%
viability, T/C [11]: 101%
viability, T/C [12]: 85%
